Measurements published in patent US20150290200A1, “INTRACELLULAR KINASE INHIBITORS” (Pharmacyclics Inc., priority 2006, published 2015).
Where two headings read alike, the source gives them in different places. Blank lines part the entries; values can stand above or below the compound they belong to.

How the values were obtained:
ITK kinase domain = target: T1, ITK kinase domain (Homo sapiens, UniProt Q08881); test: In vitro kinase assay (HITHUNTER enzyme fragment complementation), ITK; format: biochemical
T1 construct: N-terminally His-tagged ITK kinase domain (amino acids 352-617); His (N); made in house
T1 sequence (Q08881 352-617): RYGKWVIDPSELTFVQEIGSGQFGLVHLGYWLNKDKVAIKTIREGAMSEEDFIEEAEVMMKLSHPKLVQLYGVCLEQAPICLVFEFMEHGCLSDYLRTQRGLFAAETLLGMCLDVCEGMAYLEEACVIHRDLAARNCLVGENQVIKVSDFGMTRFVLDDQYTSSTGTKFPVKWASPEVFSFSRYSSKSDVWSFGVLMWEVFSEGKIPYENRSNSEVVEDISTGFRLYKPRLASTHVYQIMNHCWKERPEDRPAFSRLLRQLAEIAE
Method: Compounds were screened using the HITHUNTER™ enzyme fragment complementation method (Discoverx). Briefly, a recombinantly produced, N-terminally His-tagged ITK kinase domain (amino acids 352-617) was incubated with various concentrations of individual compounds. ATP and substrate were added, and the kinase reaction was allowed to proceed for 2-16 hours. Commercially available detection reagents were added and allowed to react for 2-4 hours. The reaction was evaluated by luminescence. Initial results were confirmed using full-length recombinant ITK protein.
In order to confirm the mechanism by which compounds depicted herein interact with the kinase domain of Tec and EGFR kinases, we created a point mutant of the ITK kinase domain, whereby the key amino acid, namely C442 was mutated to alanine. The protein was expressed in a commercial baculovirus expression system using the manufacturer's general protocol (Invitrogen, pBlueBac). Protein was expressed and purified using standard techniques. […] While the activity of WT-ITK was inhibited by compounds depicted in this application, the same compounds had no activity towards the C442A mutant kinase domain.

BTK kinase domain = target: T2, BTK kinase domain (Homo sapiens, UniProt Q06187); test: In vitro kinase assay (HITHUNTER), BTK; format: biochemical
T2 construct: The kinase domains of BTK, LCK and ERK were expressed as recombinant purified proteins; made in house
T2 sequence (Q06187 402-655 limits assumed): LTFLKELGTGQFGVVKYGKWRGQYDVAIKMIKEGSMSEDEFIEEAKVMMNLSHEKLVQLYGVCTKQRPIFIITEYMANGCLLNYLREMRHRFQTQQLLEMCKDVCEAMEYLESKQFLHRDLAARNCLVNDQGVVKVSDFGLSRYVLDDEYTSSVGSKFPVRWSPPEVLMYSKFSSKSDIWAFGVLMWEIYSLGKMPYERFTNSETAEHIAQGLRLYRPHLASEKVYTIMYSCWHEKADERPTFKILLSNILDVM
Text: Similarly, commercially available reagents such as HITHUNTER™ were used to evaluate the effect of compounds on the activity of additional kinases. The kinase domains of BTK, LCK and ERK were expressed as recombinant purified proteins were used for these studies.

[1] = Table 3, Compound, read-out: IC50 ITK
[2] = Table 3, naphthyl analog, read-out: IC50 ITK

Structure (SMILES): O=C(CCN1CCCC1)c1ccc2ccccc2c1 [drawing 184]
IC50 (ITK kinase domain; Table 4, read-out: IC50 ITK): 74.9 nM

Structure (SMILES): O=C(CCN1CCOCC1)c1cnc2ccccc2c1
IC50 (BTK kinase domain; Table 4): 100 nM
IC50 (ITK kinase domain; Table 4, read-out: IC50 ITK): 189 nM

Structure (SMILES): CC(C)N(CCC(=O)c1ccc2c(c1)NC(=O)CO2)C(C)C
IC50 (BTK kinase domain; Table 3, Compound): 544 nM
IC50 (ITK kinase domain; [1]): 23 nM

Structure (SMILES): O=C(CCN1CCc2ccccc2C1)c1ccc2ccccc2c1 [drawing 209]
IC50 (ITK kinase domain; Table 5, read-out: IC50 ITK): 21.2 nM

Structure (SMILES): CN(C)C1CCN(CCC(=O)c2ccc3c(c2)NC(=O)CO3)CC1
IC50 (BTK kinase domain; Table 3, Compound): 150 nM
IC50 (ITK kinase domain; [1]): 13 nM

Structure (SMILES): O=C(O)c1ccc2cc(C(=O)CCN3CCOCC3)ccc2c1
IC50 (BTK kinase domain; Table 4): 2360 nM
IC50 (ITK kinase domain; Table 4, read-out: IC50 ITK): 3340 nM

Structure (SMILES): COc1cc2c(cc1OC)CN(CCC(=O)c1ccc3c(c1)NC(=O)CO3)CC2 [drawing 168]
IC50 (BTK kinase domain; Table 3, Compound): 276 nM
IC50 (ITK kinase domain; [1]): 30 nM

Structure (SMILES): O=C(CCN1CCN(CC2CCCCC2)CC1)c1ccc2ccccc2c1 [drawing 111]
IC50 (ITK kinase domain; Table 1, ITK, read-out: IC50): 11.4 nM

Structure (SMILES): O=C(CCN1CCN(Cc2ccccc2)CC1)c1ccc2ccccc2c1
IC50 (ITK kinase domain; Table 4, read-out: IC50 ITK): 30.3 nM

Structure (SMILES): CN(C)C1CCN(CCC(=O)c2ccc3ccccc3c2)C1 (centres unmarked) [drawing 214]
IC50 (BTK kinase domain; Table 5): 49.2 nM
IC50 (ITK kinase domain; Table 5, read-out: IC50 ITK): 6.9 nM

Structure (SMILES): O=C(CCN1CCN(c2ccccn2)CC1)c1ccc2ccccc2c1 [drawing 205]
IC50 (ITK kinase domain; Table 5, read-out: IC50 ITK): 14.8 nM

Structure (SMILES): CN(CCC(=O)c1ccc2ccccc2c1)Cc1ccccc1 [drawing 203]
IC50 (ITK kinase domain; Table 5, read-out: IC50 ITK): 16.9 nM

Structure (SMILES): O=C(CCN1CCC(Cc2ccccc2)CC1)c1ccc2ccccc2c1 [drawing 204]
IC50 (BTK kinase domain; Table 5): 128 nM
IC50 (ITK kinase domain; Table 5, read-out: IC50 ITK): 60.2 nM

Structure (SMILES): O=C(CCN1CCCCC1)c1ccc2ccccc2c1
IC50 (ITK kinase domain; Table 5, read-out: IC50 ITK): 537 nM

Structure (SMILES): CC(C)N(CCC(=O)c1ccc2ccccc2c1)C(C)C [drawing 179]
IC50 (BTK kinase domain; Table 3, naphthyl analog): 0.72 nM
IC50 (ITK kinase domain; [2]): 9 nM

Structure (SMILES): CN(C)C1CCN(CCC(=O)c2ccc3ccccc3c2)C1 (centres unmarked) [drawing 171]
IC50 (BTK kinase domain; Table 3, naphthyl analog): 2.15 nM
IC50 (ITK kinase domain; [2]): 7 nM

Structure (SMILES): CC(=O)N1CCN(CCC(=O)c2ccc3ccccc3c2)CC1
IC50 (BTK kinase domain; Table 5): 89 nM
IC50 (ITK kinase domain; Table 5, read-out: IC50 ITK): 66 nM

Structure (SMILES): O=C1COc2ccc(C(=O)CCN3CCOCC3)cc2N1 [drawing 166]
IC50 (BTK kinase domain; Table 3, Compound): 781 nM
IC50 (ITK kinase domain; [1]): 5.9 nM

Structure (SMILES): O=C(CCN1CCOCC1)c1ccc2ccccc2c1 [drawing 167]
IC50 (BTK kinase domain; Table 3, naphthyl analog): 39.5 nM
IC50 (ITK kinase domain; [2]): 20 nM

Structure (SMILES): NC(=O)c1ccc2cc(C(=O)CCN3CCOCC3)ccc2c1 [drawing 198]
IC50 (BTK kinase domain; Table 4): 1 nM
IC50 (ITK kinase domain; Table 4, read-out: IC50 ITK): 5 nM

Structure (SMILES): CN(C)C(=O)N1CCC(CNCCC(=O)c2ccc3ccccc3c2)CC1
IC50 (BTK kinase domain; Table 5): 373 nM
IC50 (ITK kinase domain; Table 5, read-out: IC50 ITK): 737 nM

Structure (SMILES): CC(C)(C)C(=O)N1CCN(CCC(=O)c2ccc3ccccc3c2)CC1
IC50 (BTK kinase domain; Table 5): 360 nM
IC50 (ITK kinase domain; Table 5, read-out: IC50 ITK): 64 nM

Structure (SMILES): O=C(CCN1CCSCC1)c1ccc2ccccc2c1
IC50 (BTK kinase domain; Table 5): 71 nM
IC50 (ITK kinase domain; Table 5, read-out: IC50 ITK): 31 nM

Other lines, results leading:

IC50 (ITK kinase domain; Table 1, ITK, read-out: IC50): 18.3 nM
Structure (SMILES): O=C(CCN1CCc2ccccc2C1)c1ccc2ccccc2c1 [drawing 115]

IC50 (BTK kinase domain; Table 4): 2040 nM
IC50 (ITK kinase domain; Table 4, read-out: IC50 ITK): 75 nM
Structure (SMILES): O=C(CCN1CCOCC1)c1ccc2occc2c1 [drawing 192]

IC50 (ITK kinase domain; Table 4, read-out: IC50 ITK): 56.7 nM
Structure (SMILES): CN(CCC(=O)c1ccc2ccccc2c1)Cc1ccc(C(F)(F)F)cc1

IC50 (BTK kinase domain; Table 5): 486 nM
IC50 (ITK kinase domain; Table 5, read-out: IC50 ITK): 284 nM
Structure (SMILES): O=C(CCN1CCC(C(=O)c2ccncc2)CC1)c1ccc2ccccc2c1

IC50 (BTK kinase domain; Table 3, Compound): 481 nM
IC50 (ITK kinase domain; [1]): 18 nM
Structure (SMILES): CN(C)CCN1CCN(CCC(=O)c2ccc3c(c2)NC(=O)CO3)CC1

IC50 (ITK kinase domain; Table 1, ITK, read-out: IC50): 4.26 nM
Structure (SMILES): O=C(CCN1CCN(c2ccccc2)CC1)c1ccc2ccccc2c1

IC50 (ITK kinase domain; Table 5, read-out: IC50 ITK): 14.7 nM
Structure (SMILES): O=C(CCN1CCN(CC2CCCCC2)CC1)c1ccc2ccccc2c1 [drawing 219]

IC50 (ITK kinase domain; Table 4, read-out: IC50 ITK): 92.8 nM
Structure (SMILES): O=C(CCN1CCC(Cc2ccccc2)CC1)c1ccc2ccccc2c1 [drawing 182]

IC50 (BTK kinase domain; Table 4): 2 nM
IC50 (ITK kinase domain; Table 4, read-out: IC50 ITK): 42 nM
Structure (SMILES): O=CNc1ccc2cc(C(=O)CCN3CCOCC3)ccc2c1

IC50 (BTK kinase domain; Table 3, Compound): 1890 nM
IC50 (ITK kinase domain; [1]): 72 nM
Structure (SMILES): CN(C)C1CCN(CCC(=O)C2=CC3NC(=O)COC3C=C2)C1 (centres unmarked)

IC50 (BTK kinase domain; Table 5): 123 nM
IC50 (ITK kinase domain; Table 5, read-out: IC50 ITK): 49 nM
Structure (SMILES): O=C(CCN1CCC[C@@H]1CO)c1ccc2ccccc2c1

IC50 (BTK kinase domain; Table 4): 8170 nM
IC50 (ITK kinase domain; Table 4, read-out: IC50 ITK): 176 nM
Structure (SMILES): O=C(CCN1CCOCC1)c1c[nH]c2ccccc12

IC50 (ITK kinase domain; Table 5, read-out: IC50 ITK): 310 nM
Structure (SMILES): CC1CCN(CCC(=O)c2ccc3ccccc3c2)CC1

IC50 (BTK kinase domain; Table 5): 242 nM
IC50 (ITK kinase domain; Table 5, read-out: IC50 ITK): 60 nM
Structure (SMILES): O=C(CCN1CCN(C(=O)N2CCOCC2)CC1)c1ccc2ccccc2c1

IC50 (ITK kinase domain; Table 1, ITK, read-out: IC50): 71.9 nM
Structure (SMILES): O=C(CCN1CCOCC1)c1ccc2ccccc2c1 [drawing 117]

IC50 (ITK kinase domain; Table 1, ITK, read-out: IC50): 18.1 nM
Structure (SMILES): CC(C)N(CCC(=O)c1ccc2ccccc2c1)C(C)C [drawing 104]

IC50 (ITK kinase domain; Table 1, ITK, read-out: IC50): 28.6 nM
Structure (SMILES): O=C(CCN1Cc2ccccc2C1)c1ccc2ccccc2c1 [drawing 114]

IC50 (BTK kinase domain; Table 4): 334 nM
IC50 (ITK kinase domain; Table 4, read-out: IC50 ITK): 60 nM
Structure (SMILES): O=C(CCN1CCOCC1)c1ccc2sccc2c1

IC50 (BTK kinase domain; Table 4): 296 nM
IC50 (ITK kinase domain; Table 4, read-out: IC50 ITK): 49 nM
Structure (SMILES): O=C(CCN1CCOCC1)c1n[nH]c2ccccc12
